Read-outs that look alike come from different tables or passages of the source.
What was measured:
[1] = Multiple ascending-dose (MAD) study, plasma pharmacokinetics; assay type: in vivo, human; conditions: for Cl/F / CLss/F / Css_max / Rac (AUC), accumulation ratio at steady state / Rac_Cmax, accumulation ratio at steady state / AUC(0-t) / Vd/F / Cmax / MRT inf / AUC / AUC(0-inf) / half-life / concentration at 10 day: mean (SD); for AUC(0-t) / Vd/F / Tmax / Tmax at 10 days / Cmax / MRT inf / AUC / AUC(0-inf) / half-life / concentration at 10 day: both sexes, human, plasma, oral; for MRT inf: read-out: MRT0-∞; for concentration at 10 day: read-out: Css_min
Method: Three drug doses (10, 20 and 40 mg) were utilized. A total of 36 healthy subjects of both genders were assigned randomly to the three groups (n = 12), with10 subjects taking HEC113995PA·H2O tablets and 2 taking placebo. The participants in the 10 mg dose group received a single dose daily in the morning after overnight fasting, or a single dose daily after a standard meal in the 20 mg and 40 mg dose groups for 10 consecutive days. Serial blood samples were collected within 0.5 h before drug administration on days 7, 8 and 9, and before and after drug administration on days 1 and 10 to determine plasma concentration and pharmacokinetic characteristics. Safety and tolerability were evaluated on days 4, 8, 13 and 15.
In the first dose group of single ascending-dose study, PK blood samples were collected at 0.5 h before administration and 0.5, 1, 1.5, 2, 2.5, 3, 4, 5, 6, 8, 10, 12, 24, 36, 48, and 72 h after administration. In other SAD groups, MAD groups and food effect study, PK blood samples were collected at 0.5 h before administration, and 1, 2, 3, 4, 5, 6, 7, 8, 10, 12, 24, 48, 72, 96, 120 and 144 h after administration. Approximately 4 mL of venous blood was obtained from each collection and placed in a vacuum collection vessel containing K2EDTA anticoagulant. The blood was centrifuged and packed according to the instruction provided by the Biological Sample Detection and Analysis Unit. Briefly, all samples were centrifuged at 4°C, 1,500 g for 10 min within 0.5 h after blood collection. After centrifugation, the plasma was aliquoted into two cryogenic storage tubes. The first tube (Tube A) contained at least 0.8 mL of plasma for analytical testing, and the remaining plasma is allocated into the backup tube (Tube B). The plasma samples were stored at −80°C within 1 h after aliquoting for further analysis.
The concentration of HEC113995PA·H2O in human plasma samples (K2EDTA) was quantitatively analyzed using the LC-MS/MS method. Plasma samples (50 μL) were processed using protein precipitation with 5 μL deuterated internal standard (HEC124659) and 100 μL acetonitrile. The Shimadzu LCMS-8060 system coupled with a GL Sciences Inc. InertSustain AQ-C18 HP column (50 × 2.1 mm, 3 μm) achieved chromatographic separation through gradient elution using 0.04% TFA aqueous solution (pH 2.1) and acetonitrile at 0.4 mL/min. ESI-positive mode detection employed optimized parameters: 300°C interface temperature, 250°C DL temperature, 3 L/min nebulizer gas, and 400°C heating block temperature.
Using WinNonlin 7.0 for non-compartmental analysis (NCA), pharmacokinetic (PK) parameters were meticulously calculated based on the actual sampling times for plasma, urine, and fecal samples from each subject post-administration. These parameters encompassed a comprehensive range, including the area under the concentration–time curve (AUC), AUC from time zero (pre-dose) to the time of the last measurable concentration (AUC0-t), and AUC from time zero (pre-dose) to infinity (AUC0-∞). Additionally, maximum observed plasma concentration (Cmax), time to achieve maximum plasma concentration (Tmax), terminal elimination half-life (t1/2), elimination rate constant (Ke), apparent volume of distribution (Vd/F), clearance rate (CL/F), and mean residence time (MRT) were also determined. The AUC0-t and AUC0-∞ values were computed using the linear trapezoidal rule method. Tmax and Cmax were ascertained based on the actual observed data. In the context of the multiple ascending-dose study, both the degree of fluctuation (DF) and the accumulation ratio at steady state (Rac) were thoroughly analyzed.

Hygroscopicity = assay type: physicochemical; conditions: solid
[2] = MAD 10 mg (N = 10), D1, fasting
[3] = MAD 20 mg (N = 9), D1, after standard meal
[4] = MAD 20 mg (N = 9), D10, QD after standard meal
[5] = MAD 40 mg (N = 10), D1, after standard meal
[6] = MAD 40 mg (N = 10), D10, QD after standard meal

## Cc1nc(-c2cnc(N3CCN(CCCc4c[nH]c5ccc(C#N)cc45)CC3)nc2)sc1C(N)=O [HEC113995PA·H2O]
[1]; 10 mg on an empty stomach, low sample size
  gender difference in systemic exposure: no significant gender difference
[1]; 40 mg dose as printed in discussion
  accumulation ratio: 2.4 fold
[1]; 10 to 40 mg daily
  continuous administration until PK steady state: 7 days
[1]; 10–40 mg range, discussion
  accumulation ratios (Rac), range: 1.83–2.41
[1]; 20 and 40 mg following a standard meal, single and multiple administrations
  gender difference in systemic exposure: no apparent gender difference
[1]; [2]
  Cl/F: 9.4 L/h
  Cmax: 0.0306 µg/mL
  MRT inf: 40 h
[1]; [3]
  Cl/F: 8.1 L/h
  Cmax: 0.104 µg/mL
  MRT inf: 25.3 h
[1]; [4]
  CLss/F: 7.27 (0.97) L/h
  Css_max: 202.6 (39.27) ng/mL
  Rac (AUC), accumulation ratio at steady state: 1.83 (0.16)
  Rac_Cmax, accumulation ratio at steady state: 1.96 (0.28)
  AUC: 2.79 µg·h/mL
  AUC(0-inf): 5.47 µg·h/mL
  half-life: 38.6 h
  concentration at 10 day: 0.0668 µg/mL
[1]; [5]
  Cl/F: 8.8 L/h
  Cmax: 0.208 µg/mL
  MRT inf: 24.3 h
[1]; [6]
  CLss/F: 7.25 (1.4) L/h
  Css_max: 435.6 (87.5) ng/mL
  Rac (AUC), accumulation ratio at steady state: 1.96 (0.35)
  Rac_Cmax, accumulation ratio at steady state: 2.1 (0.4)
  AUC: 5.73 µg·h/mL
  AUC(0-inf): 10.5 µg·h/mL
  half-life: 30.9 h
  concentration at 10 day: 0.132 µg/mL
[1]; after multiple administrations, 10, 20, 40 mg groups
  accumulation ratio Rac_Cmax, arithmetic mean range: 1.9546–2.4058
[1]; 10 mg, MAD 10 mg (N = 10), D1, fasting, read-out: AUC0-t
  AUC(0-t): 0.483 µg·h/mL
[1]; 10 mg, MAD 10 mg (N = 10), D1, fasting, read-out: AUC0–24h
  AUC(0-t): 0.486 µg·h/mL
[1]; 10 mg, MAD 10 mg (N = 10), D1, fasting, read-out: Vz/F
  Vd/F: 350 L
[1]; 10 mg, MAD 10 mg (N = 10), D1, fasting, median (min, max), read-out: Tmax
  Tmax: 5.5 h
[1]; 10 mg, MAD D10, 10 mg dose group, read-out: Vss/F
  Vd/F: 521 L
[1]; 10 mg, MAD D10, 10 mg dose group, median (min, max)
  Tmax at 10 days: 4.5 h
[1]; 20 mg, MAD 20 mg (N = 9), D1, after standard meal, read-out: AUC0-t
  AUC(0-t): 1.52 µg·h/mL
[1]; 20 mg, MAD 20 mg (N = 9), D1, after standard meal, read-out: AUC0–24h
  AUC(0-t): 1.53 µg·h/mL
[1]; 20 mg, MAD 20 mg (N = 9), D1, after standard meal, read-out: Vz/F
  Vd/F: 189 L
[1]; 20 mg, MAD 20 mg (N = 9), D1, after standard meal, median (min, max), read-out: Tmax
  Tmax: 5 h
[1]; 20 mg, MAD 20 mg (N = 9), D10, QD after standard meal, read-out: Vss/F
  Vd/F: 402 L
[1]; 20 mg, MAD 20 mg (N = 9), D10, QD after standard meal, median (min, max)
  Tmax at 10 days: 2 h
[1]; 40 mg, MAD 40 mg (N = 10), D1, after standard meal, read-out: AUC0-t
  AUC(0-t): 2.92 µg·h/mL
[1]; 40 mg, MAD 40 mg (N = 10), D1, after standard meal, read-out: AUC0–24h
  AUC(0-t): 2.93 µg·h/mL
[1]; 40 mg, MAD 40 mg (N = 10), D1, after standard meal, read-out: Vz/F
  Vd/F: 192 L
[1]; 40 mg, MAD 40 mg (N = 10), D1, after standard meal, median (min, max), read-out: Tmax
  Tmax: 5 h
[1]; 40 mg, MAD 40 mg (N = 10), D10, QD after standard meal, read-out: Vss/F
  Vd/F: 321 L
[1]; 40 mg, MAD 40 mg (N = 10), D10, QD after standard meal, median (min, max)
  Tmax at 10 days: 2.5 h
[1]; 40 mg, following a single administration, 10, 20, 40 mg groups, read-out: median time to peak concentration (Tmax), range
  Tmax: 5 to 5.5 h
[1]; MAD D10, 10 mg dose group
  half-life: 39.1 h
  concentration at 10 day: 0.03 µg/mL
[1]; MAD D10, head prints 20 mg (N = 9)
  AUC(0-inf): 2.49 µg·h/mL
Hygroscopicity
  hygroscopicity: slight hygroscopicity

From PMC11979273, “A phase I study to evaluate the safety, tolerability, and pharmacokinetics of HEC113995PA·H2O, a novel dual-acting serotonergic antidepressant, in healthy subjects” (Frontiers in Pharmacology, 2025)
